27 compounds from US20240300935A1, “Nitrogen Oxide Donors of Beraprost Derivative and the Pharmaceutical Compositions with the Use Thereof” (GUANGZHOU KEMROCMED CO., LTD., priority 2021, published 2024) can be followed below.

In general, inhibition refers to the relative decrease from the control value, in per cent.

Assay [1] in a line: In vitro NO release test (Griess method). The settings on record: 200 μM test compound solution mixed with 200 μM L-cysteine solution, 37° C. The procedure: NO was transiently oxidized in aqueous solution using released NO by Griess' method, NO^2− And Griess reagent form a complex, which has strong UV uptake at 540 nm to determine the amount of NO released by the compound. • 1) Preparation of solution: blank solution: 10 mL DMSO and 190 m L PBS mixed; G riess Reagent: sulfonamide (4.0 g), N-(1-naphthalyl) ethylenediamine dihydrochloride (0.2 g) and 10 mL 85% H3PO4 dissolved in 90 mL of distilled water, Blow until clear solution; L-cysteine solution: after accurate weighing of L-cysteine, Add a certain amount of PBS, Prepare a weighed 200 μM solution; Test compound solution: the exact weighing of the test compound, Dissolved in D MSO and diluted to a concentration of 1 mM, Then, when diluted in PBS, To a concentration of 200 μM.
2) Formulation of standard curve equation: prepare sodium nitrite solution concentration: 0 ,0 , 1, 3, 6, 12.5, 25, 50, 100 μmol/L, 150 μL of each concentration, add 50 μL of Griess reagent mix, incubated in 37° C. constant temperature shaker for 30 min, the plate reader measured each tube absorbance at 540 nm, after subtracting the blank solution reading, the standard curve equation . . . 78.56.13.25 • 3) Test compound test: mix 2 mL of the test compound solution and L-cysteine solution, incubate in 37° C. constant temperature shakers for 120 min, take 150 μL of each mixture, add 50 μL of Griess reagent, then incubate in 37° C. constant temperature shaker for 30 min, the microplate measured each tube absorbance at 540 nm, then subtract the blank solution reading and substitute the value into the standard curve equation to obtain NO release.

Assay [2] has as its system platelet aggregation induced by ADP. The assay can be described thus: Antiplatelet aggregation effect, ADP-induced, turbidimetry in platelet-rich plasma. Format: cell-based. The conditions noted are these: Homo sapiens, 2 min; platelet rich plasma of healthy subjects; 25 μL of 50 nM compound solution in 225 μL plasma, 37° C. 2 min; ADP final 2 μM; read-out: The rate of platelet aggregation inhibition. The protocol:
• 1) Experimental material: ADP, epinephrine, collagen (bilBio) • 2) Experimental method: blood samples provided by healthy subjects were mixed blood with 3.8% citric acid solution and centrifuged at 160 r/min to obtain platelet-rich plasma. To calibrate the data, the obtained platelet-rich plasma was further centrifuged at 2000 r/min to obtain platelet-poor plasma, stored in a −20° C. refrigerator. Testing was performed using Born I's turbiometry. 225 μL of platelet rich plasma was added to the reaction cup, the embodiment compound was configured as 50 nM solution (25 m M Tris-acetate and 120 m M N a Cl), 25 μL of embodiment compound solution was added and after incubation at 37° C. for 2 min, 5 μL of ADP (final concentration 2 μM) was added for platelet aggregation induction. To assess the degree of platelet aggregation, the maximum absorbance value took the data after ADP, thus calculating the inhibition rate of ADP-induced platelet aggregation by each embodiment compound. According to the data in Table 6 below, the compounds of the present application embodiment all have a good effect of inhibiting the platelet aggregation induced by ADP.

As for `CC#CCC(C)[C@@H](O)/C=C/[C@H]1[C@@H]2c3cccc(CCCC(=O)OCCOc4no[n+]([O-])c4S(=O)(=O)c4ccccc4)c3O[C@@H]2C[C@@H]1O` (stereo partly drawn) [Compound 33], the “120 min NO^2−” value in assay [1] amounted to 14.2 µM. Further, the inhibition at 0.005 µM in assay [2] stood at 82%.

As for `CC#CCC(C)[C@@H](O)/C=C/[C@H]1[C@@H]2c3cccc(CCCC(=O)OCCCOC(=O)CCCO[N+](=O)[O-])c3O[C@@H]2C[C@@H]1O` (stereo partly drawn) [Compound 22], the “120 min NO^2−” value in assay [1] is 13.7 µM. Besides, the inhibition at 0.005 µM in assay [2] was 52%.

For `CC#CCC(C)[C@@H](O)/C=C/[C@H]1[C@@H]2c3cccc(CCCC(=O)OCCOC(=O)CCO[N+](=O)[O-])c3O[C@@H]2C[C@@H]1O` (stereo partly drawn) [Compound 20], the “120 min NO^2−” value in assay [1] came to 10.0 µM. Besides, the inhibition at 0.005 µM in assay [2] amounted to 45%.

As to `CC#CCC(C)[C@@H](O)/C=C/[C@H]1[C@@H]2c3cccc(CCCC(=O)OCCCCO[N+](=O)[O-])c3O[C@@H]2C[C@@H]1O` (stereo partly drawn) [Compound 3], the “120 min NO^2−” value in assay [1] is 16.6 µM. Further, in assay [2], the inhibition at 0.005 µM turned out to be 57%.

Take `CC#CCC(C)[C@@H](O)/C=C/[C@H]1[C@@H]2c3cccc(CCCC(=O)OCCCCOC(=O)CO[N+](=O)[O-])c3O[C@@H]2C[C@@H]1O` (stereo partly drawn) [Compound 23]: the “120 min NO^2−” value in assay [1] is 15.5 µM. In addition, in assay [2], the inhibition at 0.005 µM is 56%.

For the compound `CC#CCC(C)[C@@H](O)/C=C/[C@H]1[C@@H]2c3cccc(CCCC(=O)OCOCCO[N+](=O)[O-])c3O[C@@H]2C[C@@H]1O` (stereo partly drawn) [Compound 6], in assay [1], the “120 min NO^2−” value was 17.8 µM. The inhibition at 0.005 µM in assay [2] is 39%.

With `CC#CCC(C)[C@@H](O)/C=C/[C@H]1[C@@H]2c3cccc(CCCC(=O)OCCCCOC(=O)c4cccc(CO[N+](=O)[O-])c4)c3O[C@@H]2C[C@@H]1O` (stereo partly drawn) [Compound 27], the “120 min NO^2−” value in assay [1] turned out to be 11.9 µM. Besides, in assay [2], the inhibition at 0.005 µM worked out at 35%.

In the case of `CC#CCC(C)[C@@H](O)/C=C/[C@H]1[C@@H]2c3cccc(CCCC(=O)OCCOCCO[N+](=O)[O-])c3O[C@@H]2C[C@@H]1O` (stereo partly drawn) [Compound 8], the “120 min NO^2−” value in assay [1] worked out at 14.8 µM. Further, in assay [2], the inhibition at 0.005 µM is 61%.

For `CC#CCC(C)[C@@H](O)/C=C/[C@H]1[C@@H]2c3cccc(CCCC(=O)OCCC(CO[N+](=O)[O-])CO[N+](=O)[O-])c3O[C@@H]2C[C@@H]1O` (stereo partly drawn) [Compound 29], the “120 min NO^2−” value in assay [1] amounted to 16.2 µM. In addition, in assay [2], the inhibition at 0.005 µM was found to be 56%.

As to `CC#CCC(C)[C@@H](O)/C=C/[C@H]1[C@@H]2c3cccc(CCCC(=O)OCOC(=O)CCO[N+](=O)[O-])c3O[C@@H]2C[C@@H]1O` (stereo partly drawn) [Compound 10], the “120 min NO^2−” value in assay [1] was found to be 11.3 µM. Also, in assay [2], the inhibition at 0.005 µM was 54%.

As to `CC#CCC(C)[C@@H](O)/C=C/[C@H]1[C@@H]2c3cccc(CCCC(=O)OCCCCCO[N+](=O)[O-])c3O[C@@H]2C[C@@H]1O` (stereo partly drawn) [Compound 4], the “120 min NO^2−” value in assay [1] amounted to 14.1 µM. Moreover, the inhibition at 0.005 µM in assay [2] was 43%.

Turning to `CC#CCC(C)[C@@H](O)/C=C/[C@H]1[C@@H]2c3cccc(CCCC(=O)OCCCc4ccc(CO[N+](=O)[O-])cc4)c3O[C@@H]2C[C@@H]1O` (stereo partly drawn) [Compound 11], in assay [1], the “120 min NO^2−” value is 10.1 µM. Besides, in assay [2], the inhibition at 0.005 µM was 67%.

As for `CC#CCC(C)[C@@H](O)/C=C/[C@H]1[C@@H]2c3cccc(CCCC(=O)OCCOC(=O)C(C)CO[N+](=O)[O-])c3O[C@@H]2C[C@@H]1O` (stereo partly drawn) [Compound 21], the “120 min NO^2−” value in assay [1] worked out at 11.1 µM. Further, the inhibition at 0.005 µM in assay [2] was 81%.

Take `CC#CCC(C)[C@@H](O)/C=C/[C@H]1[C@@H]2c3cccc(CCCC(=O)OCCO[N+](=O)[O-])c3O[C@@H]2C[C@@H]1O` (stereo partly drawn) [Compound 1]: the “120 min NO^2−” value in assay [1] is 15.5 µM. Besides, the inhibition at 0.005 µM in assay [2] is 78%.

For the compound `CC#CCC(C)[C@@H](O)/C=C/[C@H]1[C@@H]2c3cccc(CCCC(=O)OCCCCCCO[N+](=O)[O-])c3O[C@@H]2C[C@@H]1O` (stereo partly drawn) [Compound 5], the “120 min NO^2−” value in assay [1] amounted to 11.8 µM. For the same compound, the inhibition at 0.005 µM in assay [2] was determined as 64%.

Turning to `CC#CCC(C)[C@@H](O)/C=C/[C@H]1[C@@H]2c3cccc(CCCC(=O)OCCC4CCC(CO[N+](=O)[O-])CC4)c3O[C@@H]2C[C@@H]1O` (stereo partly drawn) [Compound 14], in assay [1], the “120 min NO^2−” value stood at 9.6 µM. Also, the inhibition at 0.005 µM in assay [2] is 48%.

Consider `CC#CCC(C)[C@@H](O)/C=C/[C@H]1[C@@H]2c3cccc(CCCC(=O)OCOCCCO[N+](=O)[O-])c3O[C@@H]2C[C@@H]1O` (stereo partly drawn) [Compound 7], for which the “120 min NO^2−” value in assay [1] came to 17.7 µM. Also, the inhibition at 0.005 µM in assay [2] was 44%.

For the compound `CC#CCC(C)[C@@H](O)/C=C/[C@H]1[C@@H]2c3cccc(CCCC(=O)OCOC(=O)O[N+](=O)[O-])c3O[C@@H]2C[C@@H]1O` (stereo partly drawn) [Compound 9], in assay [1], the “120 min NO^2−” value was 18.2 µM. The inhibition at 0.005 µM in assay [2] was 52%.

On to `CC#CCC(C)[C@@H](O)/C=C/[C@H]1[C@@H]2c3cccc(CCCC(=O)OCOC(=O)CCCCO[N+](=O)[O-])c3O[C@@H]2C[C@@H]1O` (stereo partly drawn) [Compound 16], for which, in assay [1], the “120 min NO^2−” value is 12.1 µM. Besides, the inhibition at 0.005 µM in assay [2] was determined as 81%.

As to `CC#CCC(C)[C@@H](O)/C=C/[C@H]1[C@@H]2c3cccc(CCCC(=O)OCCOC(=O)c4cccc(CO[N+](=O)[O-])c4)c3O[C@@H]2C[C@@H]1O` (stereo partly drawn) [Compound 25], in assay [1], the “120 min NO^2−” value was found to be 10.7 µM. Besides, the inhibition at 0.005 µM in assay [2] came to 35%.

Take `CC#CCC(C)[C@@H](O)/C=C/[C@H]1[C@@H]2c3cccc(CCCC(=O)OCCOC(=O)CO[N+](=O)[O-])c3O[C@@H]2C[C@@H]1O` (stereo partly drawn) [Compound 17]: in assay [1], the “120 min NO^2−” value came to 7.6 µM. Further, in assay [2], the inhibition at 0.005 µM was 59%.

`CC#CCC(C)[C@@H](O)/C=C/[C@H]1[C@@H]2c3cccc(CCCC(=O)OCOC(=O)Cc4ccc(CO[N+](=O)[O-])cc4)c3O[C@@H]2C[C@@H]1O` (stereo partly drawn) [Compound 24]: the “120 min NO^2−” value in assay [1] amounted to 15.8 µM. In assay [2], the inhibition at 0.005 µM came out at 47%.

`CC#CCC(C)[C@@H](O)/C=C/[C@H]1[C@@H]2c3cccc(CCCC(=O)OCCCO[N+](=O)[O-])c3O[C@@H]2C[C@@H]1O` (stereo partly drawn) [Compound 2]: the “120 min NO^2−” value in assay [1] came out at 14.3 µM. The inhibition at 0.005 µM in assay [2] is 66%.

With `CC#CCC(C)[C@@H](O)/C=C/[C@H]1[C@@H]2c3cccc(CCCC(=O)OCCCOC(=O)CCO[N+](=O)[O-])c3O[C@@H]2C[C@@H]1O` (stereo partly drawn) [Compound 18], the “120 min NO^2−” value in assay [1] came out at 8.0 µM. In addition, the inhibition at 0.005 µM in assay [2] was determined as 66%.

Take `CC#CCC(C)[C@@H](O)/C=C/[C@H]1[C@@H]2c3cccc(CCCC(=O)OCOc4c(S(=O)(=O)c5ccccc5)no[n+]4[O-])c3O[C@@H]2C[C@@H]1O` (stereo partly drawn) [Compound 32]: in assay [1], the “120 min NO^2−” value was determined as 20.4 µM. For the same compound, the inhibition at 0.005 µM in assay [2] was determined as 55%.

Consider `CC#CCC(C)[C@@H](O)/C=C/[C@H]1[C@@H]2c3cccc(CCCC(=O)OCCCOC(=O)c4cccc(CO[N+](=O)[O-])c4)c3O[C@@H]2C[C@@H]1O` (stereo partly drawn) [Compound 26], for which, in assay [1], the “120 min NO^2−” value came out at 12.6 µM. Besides, in assay [2], the inhibition at 0.005 µM was determined as 22%.

Take `CC#CCC(C)[C@@H](O)/C=C/[C@H]1[C@@H]2c3cccc(CCCC(=O)OCOCC(CO[N+](=O)[O-])O[N+](=O)[O-])c3O[C@@H]2C[C@@H]1O` (stereo partly drawn) [Compound 30]: the “120 min NO^2−” value in assay [1] was determined as 17.8 µM. For the same compound, in assay [2], the inhibition at 0.005 µM was 52%.
